One data set relates to ARPE19 cells. Put plainly: Staining of dead cells and/or living cells: dye content in ARPE19 cells by spectrophotometry. It is filed as cell-based, human. As to conditions: 15 minutes staining; for Adead (maximum absorbance for dead cells): ARPE19 cells fixed with 70% ethanol 5 minutes; for Aliving (maximum absorbance for living cells): living ARPE19 cells.
The subject of another data set is ARPE-19 cells. Put plainly: Toxicity: survival of cells after exposure to dyes. It is filed as cell-based. As to conditions: for Survival of ARPE-19 cells: 0.1% in PBS for 15 minutes at 37° C. As to the method: A preferred dye, being either a compound according to the invention or an additional dye as defined above, has a good staining ability for dead cells, a minimal cellular toxicity in the dark, and a minimal cellular toxicity in the strong illumination necessary for surgery.
According to a preferred definition, a low toxicity means that at least 60%, 65%, 70%, 75%, 80%, 85%, 90% or 95% cell viability is retained after incubation in PBS for 15 minutes at 37° C. and 5% CO2, as determined using the methodology of Example 6.

Data set [1] is described as follows: Staining ability on PVDF filter as ILM model. As to conditions: for Mean intensity of the grey values of stained filter: 30 s contact, scale 255 is white and 0 is black. An excerpt: Correlation between staining of the filter and observed staining of the ILM in patients (data from (Rodrigues, Penha et al. 2010)) show a good correlation (see FIG. 1). A 96-well filter (MSBVN1210 MultiScreen BV Filter Plate, Merck-Millipore, Darmstadt, Germany) was used as ILM model. The filter material is hydrophilic polyvinylidene difluoride (PVDF). A Collagen Cell Carrier membrane (CCC) (Viscofan, Weinheim, Germany) was used as model for the ERM. Punches of the membrane (5 mm diameter) were fixed to the filter with a hypodermic needle and soaked in PBS for 30 minutes. The PBS was removed by vacuum filtration, and 50 μL of the dye solution was pipetted into the filter well. After 30 s, the dye was removed by vacuum filtration, and membrane and filter were washed three times with PBS. The membrane was removed and put into a 96-well plate for spectrum recording, using a Tecan Spark 20M (Tecan Group Ltd., Männedorf, Switzerland) plate reader. The filter staining of the compounds (6) and (8) according to the invention are shown in FIG. 2 in comparison to that of BBG. […] The intensity of the grey values was measured. For BBG the mean intensity was 201, for compound (6) it was 175, for compound (8) it was 197. On the scale used, 255 is white and 0 is black.

Setting [2] is: dye 0.1% w/v in PBS, <0.07 = does not stain.
[3] abbreviates: concentration of the dye 0.025%.

Read-outs that look alike come from different tables or passages of the source.

The values below come from US20230310661A1, “OPHTHALMIC DYE” (Vitreq B.V., priority 2020, published 2023).

As for `CN(C)c1ccc(C(=C2C=CC(=[N+](C)C)C=C2)c2ccc(N(C)C)cc2)cc1` [Crystal Violet], the “Adead (maximum absorbance for dead cells)” value (from here on “Adead”) in the data set with ARPE19 cells (dye 0.1% w/v in PBS) was determined as 0.4365.

On to `CCN(CC)c1ccc(C(=C2C=CC(=[N+](CC)CC)C=C2)c2ccccc2)cc1` [Brilliant Green], for which, in the data set on ARPE19 cells (dye 0.1% w/v in PBS), the “Adead” value is recorded as 0.0568. Further, the “Aliving (maximum absorbance for living cells)” value (“Aliving” below) with ARPE19 cells (setting [2]) is recorded as 0.1088.

Turning to Methyl Violet, the “Adead” value with ARPE19 cells (dye 0.1% w/v in PBS) is recorded as 0.8900.

Regarding `CC1=CC(=[N+](C)Cc2cccc(S(=O)(=O)[O-])c2)C=CC1=C(c1ccc(Nc2ccc(OCc3ccccc3)cc2)cc1)c1ccc(N(C)Cc2cccc(S(=O)(=O)O)c2)cc1C` [(2)], the “Adead” value in the data set with ARPE19 cells (dye 0.1% w/v in PBS) amounted to 0.2454. Besides, the “Aliving” value in the data set with ARPE19 cells (setting [2]) came to 0.0253.

Consider `CCCOc1ccc(Nc2ccc(C(=C3C=CC(=[N+](CC)Cc4cccc(S(=O)(=O)[O-])c4)C=C3C)c3ccc(N(CC)Cc4cccc(S(=O)(=O)O)c4)cc3C)cc2)cc1` [(4)], for which, in the data set on ARPE19 cells (dye 0.1% w/v in PBS), the “Adead” value worked out at 0.8084. The “Aliving” value in the data set with ARPE19 cells (setting [2]) stood at 0.0485.

In the case of `CC1(C)C(/C=C/C=C/C=C/C=C2\N(CCCCS(=O)(=O)O)c3ccc4ccccc4c3C2(C)C)=[N+](CCCCS(=O)(=O)[O-])c2ccc3ccccc3c21` [ICG, indocyanine green], the “Adead” value with ARPE19 cells (dye 0.1% w/v in PBS) is 1.1751. The “Aliving” value with ARPE19 cells (setting [2]) is given as 0.0703.

In the case of `CCCCN(c1ccc(OCC)cc1)c1ccc(C(=C2C=CC(=[N+](CC)Cc3cccc(S(=O)(=O)[O-])c3)C=C2C)c2ccc(N(CC)Cc3cccc(S(=O)(=O)O)c3)cc2C)cc1` [BBBG], the “Adead” value in the data set with ARPE19 cells (dye 0.1% w/v in PBS) was 0.7941. Besides, the “Aliving” value in the data set on ARPE19 cells (setting [2]) came to 0.1491. In the data set on ARPE-19 cells (dye concentration 0.005%), this compound came in with a Survival of 67%.

With `Cc1cc(-c2ccc(/N=N/c3c(S(=O)(=O)O)cc4cc(S(=O)(=O)O)cc(N)c4c3O)c(C)c2)ccc1/N=N/c1c(S(=O)(=O)O)cc2cc(S(=O)(=O)O)cc(N)c2c1O` [Trypan Blue], in the data set with ARPE19 cells (dye 0.1% w/v in PBS), the “Adead” value was determined as 0.0847. For the same compound, in the data set on ARPE19 cells (setting [2]), the “Aliving” value was found to be 0.0135.

Turning to Acid Violet, in the data set with ARPE19 cells (dye 0.1% w/v in PBS), the “Adead” value turned out to be 0.2077. Further, the “Aliving” value in the data set on ARPE19 cells (setting [2]) is reported as 0.0184.

Consider `O=S1(=O)OC(c2cc(Br)c(O)c(Br)c2)(c2cc(Br)c(O)c(Br)c2)c2ccccc21` [Bromophenol Blue], for which, in the data set on ARPE19 cells (dye 0.1% w/v in PBS), the “Adead” value is 0.0357. Also, the “Aliving” value with ARPE19 cells (setting [2]) was 0.0059.

`CC1=CC(=[N+](C)Cc2cccc(S(=O)(=O)[O-])c2)C=CC1=C(c1ccc(Nc2ccc(OC(C)C)cc2)cc1)c1ccc(N(C)Cc2cccc(S(=O)(=O)O)c2)cc1C` [(1)]: in the data set with ARPE19 cells (dye 0.1% w/v in PBS), the “Adead” value amounted to 0.3481. Also, in the data set with ARPE19 cells (setting [2]), the “Aliving” value is 0.0283.

As for Aniline Blue, the “Adead” value with ARPE19 cells (dye 0.1% w/v in PBS) came to 0.0057. The “Aliving” value with ARPE19 cells (setting [2]) is recorded as 0.0080.

In the case of `CCOc1ccc(N(C)c2ccc(C(=C3C=CC(=[N+](CC)Cc4cccc(S(=O)(=O)[O-])c4)C=C3C)c3ccc(N(CC)Cc4cccc(S(=O)(=O)O)c4)cc3C)cc2)cc1` [MBBG], the “Adead” value in the data set on ARPE19 cells (dye 0.1% w/v in PBS) was 0.6876. The “Aliving” value in the data set on ARPE19 cells (setting [2]) was found to be 0.0355.

For the compound `CCN(Cc1cccc(S(=O)(=O)O)c1)c1ccc(C(=C2C=CC(=[N+](CC)Cc3cccc(S(=O)(=O)[O-])c3)C=C2C)c2ccc(Nc3ccc(Oc4ccccc4)cc3)cc2)c(C)c1` [(7)], in the data set with ARPE19 cells (setting [3]), the “Adead” value came out at 0.1976 and the “Aliving” value worked out at 0.0216. For the same compound, the “Survival of ARPE-19 cells” value in the data set with ARPE-19 cells was 81%. The compound further registered a Survival in the data set with ARPE-19 cells (dye concentration 0.025%) of 81%.

In the case of Patent Blue 1, the “Adead” value in the data set with ARPE19 cells (dye 0.1% w/v in PBS) stood at 0.0113. In addition, the “Aliving” value with ARPE19 cells (setting [2]) came to 0.0155.

With `CCN(Cc1cccc(S(=O)(=O)O)c1)c1ccc(C(=C2C=CC(=[N+](CC)Cc3cccc(S(=O)(=O)O)c3)C=C2)c2ccc(S(=O)(=O)O)cc2)cc1.[Na+].[Na+]` [Light Green SF], the “Adead” value in the data set on ARPE19 cells (dye 0.1% w/v in PBS) is recorded as 0.0080. In addition, in the data set with ARPE19 cells (setting [2]), the “Aliving” value is 0.0065.

On to `CCN(Cc1cccc(S(=O)(=O)O)c1)c1ccc(C(=C2C=CC(=[N+](CC)Cc3cccc(S(=O)(=O)[O-])c3)C=C2C)c2ccc(Nc3ccc(OC(C)C)cc3)cc2)c(C)c1` [(3)], for which the “Adead” value in the data set with ARPE19 cells (dye 0.1% w/v in PBS) came to 0.6387. Moreover, in the data set on ARPE19 cells (setting [2]), the “Aliving” value is listed as 0.0440.

Take `CCCN(c1ccc(OCC)cc1)c1ccc(C(=C2C=CC(=[N+](CC)Cc3cccc(S(=O)(=O)[O-])c3)C=C2C)c2ccc(N(CC)Cc3cccc(S(=O)(=O)O)c3)cc2C)cc1` [PBBG]: in the data set with ARPE19 cells (dye 0.1% w/v in PBS), the “Adead” value is on record as 0.7369. The “Aliving” value with ARPE19 cells (setting [2]) is reported as 0.1331. In the data set with ARPE-19 cells (dye concentration 0.005%), this compound had a Survival of 66%.

As to `CCN(Cc1cccc(S(=O)(=O)O)c1)c1ccc(C(=C2C=CC(=[N+](CC)Cc3cccc(S(=O)(=O)[O-])c3)C=C2C)c2ccc(Nc3ccc(OCc4ccccc4)cc3)cc2)c(C)c1` [(5)], the “Adead” value in the data set with ARPE19 cells (dye 0.1% w/v in PBS) is recorded as 0.6734. For the same compound, the “Aliving” value in the data set with ARPE19 cells (setting [2]) turned out to be 0.0327. The “Survival of ARPE-19 cells” value in the data set with ARPE-19 cells is 81%. Besides, the Survival in the data set with ARPE-19 cells (dye concentration 0.025%) was determined as 81%.

In the case of `CCOc1ccc(N(CC)c2ccc(C(=C3C=CC(=[N+](CC)Cc4cccc(S(=O)(=O)[O-])c4)C=C3C)c3ccc(N(CC)Cc4cccc(S(=O)(=O)O)c4)cc3C)cc2)cc1` [EBBG], the “Adead” value with ARPE19 cells (dye 0.1% w/v in PBS) worked out at 0.9066. For the same compound, the “Aliving” value with ARPE19 cells (setting [2]) worked out at 0.0724. Besides, the Survival in the data set with ARPE-19 cells (dye concentration 0.025%) is reported as 93%.

Turning to `CCOc1ccc(Nc2ccc(/C(=C3C=C/C(=[N+](/CC)Cc4cccc(S(=O)(=O)[O-])c4)C=C/3C)c3ccc(N(CC)Cc4cccc(S(=O)(=O)[O-])c4)cc3C)cc2)cc1.[Na+]` [BBG, Brilliant Blue G], the “Adead” value in the data set on ARPE19 cells (dye 0.1% w/v in PBS) is on record as 0.5651. For the same compound, the “Aliving” value in the data set on ARPE19 cells (setting [2]) is reported as 0.0328. The “Mean intensity of the grey values of stained filter” value in data set [1] (dye 0.025%) is 201. The compound also registered a Survival in the data set on ARPE-19 cells of 99%.

In the case of `CN(C)c1ccc(C(=C2C=CC(=[N+](C)C)C=C2)c2ccccc2)cc1` [Malachite Green], the “Adead” value with ARPE19 cells (dye 0.1% w/v in PBS) stood at 0.0068. In the data set with ARPE19 cells (setting [2]), the “Aliving” value is 0.0058.

For `CCN(Cc1cccc(S(=O)(=O)O)c1)c1ccc(C(=C2C=CC(=[N+](CC)Cc3cccc(S(=O)(=O)[O-])c3)C=C2C)c2ccc(Nc3ccc(Nc4ccccc4)cc3)cc2)c(C)c1` [(8)], in the data set on ARPE19 cells (dye 0.1% w/v in PBS), the “Adead” value came out at 0.8411. Besides, in the data set on ARPE19 cells (setting [2]), the “Aliving” value turned out to be 0.0629. In data set [1] (PVDF filter as model for the ILM), the “Ability to stain the ILM (comparative statement)” value was “increased ability to stain the ILM compared to compound (6)”. Besides, the “Mean intensity of the grey values of stained filter” value in data set [1] (dye 0.005%) amounted to 197. Also, the “Filter staining in comparison to BBG and compound (6)” value in data set [1] (dye at 0.005%, comparators at 0.025%, FIG. 2) is listed as “even stronger staining”. For the same compound, the “Survival of ARPE-19 cells” value with ARPE-19 cells came out at 79%. In the data set with ARPE-19 cells (dye concentration 0.025%), this compound came in with a Survival of 79%.

For the compound `CN(C)c1ccc(C(=C2C=CC(=[N+](C)C)C=C2)c2ccc([N+](C)(C)C)cc2)cc1.[Cl-].[Cl-]` [Methyl Green], the “Adead” value with ARPE19 cells (dye 0.1% w/v in PBS) turned out to be 0.0750. For the same compound, the “Aliving” value in the data set with ARPE19 cells (setting [2]) came out at 0.0489.

For the compound `O=C1OC2(c3ccccc31)c1cc(Br)c(O)c(Br)c1Oc1c2cc(Br)c(O)c1Br` [Eosin], the “Adead” value in the data set with ARPE19 cells (dye 0.1% w/v in PBS) was 0.2358. Further, in the data set with ARPE19 cells (setting [2]), the “Aliving” value was determined as 0.0362.
